The results in this text go back to patent publication US20130172360A1, “DERIVATIVES OF AZAINDAZOLE OR DIAZAINDAZOLE TYPE AS MEDICAMENT” (PIERRE FABRE MEDICAMENT, priority 2011, published 2013).

One data set addresses T1, Abl (Homo sapiens, UniProt P00519).
T1 construct: purchased Millipore
As to the kind of experiment: Inhibition of a panel of kinases (Millipore): Abl. Conditions: Millipore kinase panel; read-out: Enzyme inhibition (IC50, nM) Abl. The data set is classed as biochemical. From the text:
(§1) Test for Measuring Inhibition of a Panel of Kinases:
(§2) These kinases are produced by Millipore and are screened according to the manufacturer's protocols.

Data set [1] addresses T2, ALK (Homo sapiens, UniProt Q9UM73). As to the kind of experiment: Inhibition of a panel of kinases (Millipore): ALK. The note with it: Millipore kinase panel; read-out: Enzyme inhibition (IC50, nM) ALK. Format: biochemical.
Source text: as §1, §2

Data set [2] deals with T2, ALK. As to the kind of experiment: Test for measuring inhibition of ALK kinase (GST-PLCγ1 substrate, anti-phosphotyrosine ELISA, luminescence). The data set is classed as biochemical. The note with it: 250 μM ATP, 30 minutes at 30° C.; read-out: Enzymatic inhibition of ALK (IC50). How it is done: Test for Measuring Inhibition of ALK Kinase:
A ViewPlate microplate (Packard) is incubated with 0.1 mg/ml GST-PLCγ1 substrate (purified recombinant form) in phosphate buffer (PBS, pH 7.4) (100 μl/well) for one hour under stirring. The plate is then saturated with blocking solution comprising 5% bovine serum albumin (BSA) (Sigma) in PBS buffer, pH 7.4.
After having added a compound according to the invention to the desired final concentration (typical range between 30 μM and 10 nM), the reaction is carried out by adding 180 ng/ml ALK to a reaction buffer comprised of 13 mM Tris, pH 7.5 (Sigma); 6.5 mM MgCl2 (Merck); 0.65 mM dithiothreitol (DTT) (Acros); 39 mM sodium ([…] (TCI); 0.65 mM sodium orthovanadate (Sigma); and 250 μM ATP (Sigma). Incubation is carried out for 30 minutes at 30° C. under stirring.
After three washings under stirring in 0.1% PBS/Tween-20 buffer (Sigma), an anti-phosphotyrosine antibody, coupled with HRP (UBI) diluted to 1/1000 in 5 mg/ml PBS/BSA buffer, is incubated for one hour with stirring. After three new washings in 0.1% PBS/Tween-20, the wells are incubated for two minutes with […] of SuperSignal ELISA mixture (Pierce).
The signal is read in luminescence mode using a luminometer (SpectraMax M5e, Molecular Devices).
IC50s are determined by nonlinear regression on the basis of a sigmoidal dose/response relationship model, wherein the Hill coefficient is left variable, carried out on the GraphPad software package according to the algorithm provided.
A general note: In an ELISA, binding on a coated surface is turned into a signal by an enzyme label.

Data set [3] relates to human anaplastic large-cell lymphoma (ALCL) tumor model. As to the kind of experiment: In vivo antitumor activity, ALCL tumors grafted subcutaneously in mice, oral daily dosing. The note with it: mice with subcutaneous ALCL tumors, daily schedule; for adverse effects: animals weighed several times per week; for inhibition of ALCL tumor growth: corresponds to complete regression of the tumors. The method, then:
Pharmacological Activity In Vivo
The compounds were administered orally at various doses on a daily schedule to mice with ALCL tumors grafted subcutaneously. Tumor size was measured regularly during the study and the animals were weighed several times per week in order to identify any adverse effects. A compound is declared active if it induces inhibition of ALCL tumor growth by at least 58%.

The next data set addresses T3, c-Src (Homo sapiens, UniProt P12931).
T3 construct: purchased Millipore
As to the kind of experiment: Inhibition of a panel of kinases (Millipore): c-Src. The data set is classed as biochemical. The note with it: Millipore kinase panel; read-out: Enzyme inhibition (IC50, nM) c-Src.
Source text: as §1, §2

Data set [4] has as its system Karpas 299 cells (human anaplastic large-cell lymphoma). As to the kind of experiment: Test for measuring inhibition of cell (Karpas 299) proliferation (ATPlite). The note with it: 72 hours. Format: cell-based. The method, then: Test for Measuring Inhibition of Cell (Karpas 299) Proliferation:
The antiproliferative activities of the compounds according to the invention were measured by the ATPlite technique (Perkin Elmer).
Nonadherent human anaplastic large-cell lymphoma cells (Karpas 299) are inoculated in 96-well plates (300,000 cells/ml) at day 1, at a concentration compatible with logarithmic growth for the 72 hours required for the evaluation of the compounds. All of the cells are treated at day 1 and then placed in an incubator at 37° C. under an atmosphere of 5% CO2. Cell viability is evaluated at day 4 by assaying released ATP, which is characteristic of viable cells. IC50s are determined by nonlinear regression on the basis of a sigmoidal dose/response relationship model, wherein the Hill coefficient is left variable, carried out on the GraphPad software package according to the algorithm provided.
In general terms: ATP-based viability assays read luminescence as a measure of living cells.

T2 sequence (Q9UM73 19-1620): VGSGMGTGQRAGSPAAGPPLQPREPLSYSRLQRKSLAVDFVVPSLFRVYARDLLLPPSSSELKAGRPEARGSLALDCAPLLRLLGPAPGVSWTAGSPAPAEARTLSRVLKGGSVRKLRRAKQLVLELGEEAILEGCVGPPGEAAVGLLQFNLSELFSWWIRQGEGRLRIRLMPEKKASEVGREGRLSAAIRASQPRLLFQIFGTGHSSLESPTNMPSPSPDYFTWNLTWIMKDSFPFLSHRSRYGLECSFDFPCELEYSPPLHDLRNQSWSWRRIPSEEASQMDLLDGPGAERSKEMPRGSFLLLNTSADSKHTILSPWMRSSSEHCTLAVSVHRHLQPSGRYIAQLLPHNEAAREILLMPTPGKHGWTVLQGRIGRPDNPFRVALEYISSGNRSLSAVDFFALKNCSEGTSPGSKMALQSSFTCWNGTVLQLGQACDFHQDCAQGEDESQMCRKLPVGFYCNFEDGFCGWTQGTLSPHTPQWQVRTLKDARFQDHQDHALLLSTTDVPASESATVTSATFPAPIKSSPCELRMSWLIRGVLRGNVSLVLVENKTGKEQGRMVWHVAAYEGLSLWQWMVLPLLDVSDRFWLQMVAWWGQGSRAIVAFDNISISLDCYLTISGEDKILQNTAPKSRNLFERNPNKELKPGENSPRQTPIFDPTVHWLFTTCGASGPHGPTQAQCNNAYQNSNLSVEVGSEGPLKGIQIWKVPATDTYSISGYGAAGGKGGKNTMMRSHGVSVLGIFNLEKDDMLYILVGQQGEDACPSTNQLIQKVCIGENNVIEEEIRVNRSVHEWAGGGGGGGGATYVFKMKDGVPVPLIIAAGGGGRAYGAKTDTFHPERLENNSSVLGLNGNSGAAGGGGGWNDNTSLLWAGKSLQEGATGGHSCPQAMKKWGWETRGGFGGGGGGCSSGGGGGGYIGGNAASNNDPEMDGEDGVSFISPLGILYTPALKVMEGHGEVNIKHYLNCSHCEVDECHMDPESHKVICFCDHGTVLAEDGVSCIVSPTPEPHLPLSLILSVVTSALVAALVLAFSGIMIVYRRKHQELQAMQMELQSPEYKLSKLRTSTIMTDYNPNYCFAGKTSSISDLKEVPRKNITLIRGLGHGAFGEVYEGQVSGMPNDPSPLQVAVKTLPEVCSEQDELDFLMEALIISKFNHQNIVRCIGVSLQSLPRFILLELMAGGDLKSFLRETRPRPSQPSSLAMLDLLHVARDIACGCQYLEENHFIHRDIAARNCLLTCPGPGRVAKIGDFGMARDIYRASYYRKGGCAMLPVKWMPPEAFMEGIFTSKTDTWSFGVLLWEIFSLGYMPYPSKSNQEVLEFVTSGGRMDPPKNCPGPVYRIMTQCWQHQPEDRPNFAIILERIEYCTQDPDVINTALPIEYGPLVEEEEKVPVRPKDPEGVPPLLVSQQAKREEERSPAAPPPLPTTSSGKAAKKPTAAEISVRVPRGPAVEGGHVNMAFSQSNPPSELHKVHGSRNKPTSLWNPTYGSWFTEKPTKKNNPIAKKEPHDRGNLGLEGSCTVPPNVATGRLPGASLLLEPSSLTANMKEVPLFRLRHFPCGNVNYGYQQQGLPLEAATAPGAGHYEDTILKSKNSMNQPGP
T1 sequence (P00519 whole entry, species assumed): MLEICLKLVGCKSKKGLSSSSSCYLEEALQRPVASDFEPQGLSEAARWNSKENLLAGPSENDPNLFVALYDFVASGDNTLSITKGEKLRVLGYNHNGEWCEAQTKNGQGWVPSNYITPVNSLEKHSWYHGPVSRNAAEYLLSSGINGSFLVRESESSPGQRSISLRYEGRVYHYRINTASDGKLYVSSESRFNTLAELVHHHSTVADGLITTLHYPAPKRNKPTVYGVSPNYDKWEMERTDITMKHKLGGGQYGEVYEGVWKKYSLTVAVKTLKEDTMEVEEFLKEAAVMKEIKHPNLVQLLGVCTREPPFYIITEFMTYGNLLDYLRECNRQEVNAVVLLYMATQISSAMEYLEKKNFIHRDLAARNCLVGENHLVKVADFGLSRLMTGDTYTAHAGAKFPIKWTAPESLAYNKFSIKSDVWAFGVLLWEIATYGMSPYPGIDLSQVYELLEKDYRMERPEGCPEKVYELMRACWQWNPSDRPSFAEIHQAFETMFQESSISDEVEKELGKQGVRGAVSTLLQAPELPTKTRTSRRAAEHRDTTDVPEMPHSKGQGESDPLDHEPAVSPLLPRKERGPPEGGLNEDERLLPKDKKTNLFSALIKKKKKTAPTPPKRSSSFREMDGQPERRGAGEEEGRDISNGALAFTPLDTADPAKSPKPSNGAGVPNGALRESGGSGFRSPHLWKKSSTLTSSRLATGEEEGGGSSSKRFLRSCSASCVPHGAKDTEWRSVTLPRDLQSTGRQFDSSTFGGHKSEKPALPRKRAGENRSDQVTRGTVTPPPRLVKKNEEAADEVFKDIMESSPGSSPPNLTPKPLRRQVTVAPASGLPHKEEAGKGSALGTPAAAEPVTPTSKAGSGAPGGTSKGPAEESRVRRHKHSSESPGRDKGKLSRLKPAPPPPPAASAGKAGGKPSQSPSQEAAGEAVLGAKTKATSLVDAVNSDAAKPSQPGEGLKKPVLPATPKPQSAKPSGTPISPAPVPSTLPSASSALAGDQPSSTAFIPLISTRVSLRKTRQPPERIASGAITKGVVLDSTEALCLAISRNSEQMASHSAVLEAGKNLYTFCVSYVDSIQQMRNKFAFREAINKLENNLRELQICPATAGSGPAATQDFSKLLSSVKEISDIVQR
T3 sequence (P12931 whole entry): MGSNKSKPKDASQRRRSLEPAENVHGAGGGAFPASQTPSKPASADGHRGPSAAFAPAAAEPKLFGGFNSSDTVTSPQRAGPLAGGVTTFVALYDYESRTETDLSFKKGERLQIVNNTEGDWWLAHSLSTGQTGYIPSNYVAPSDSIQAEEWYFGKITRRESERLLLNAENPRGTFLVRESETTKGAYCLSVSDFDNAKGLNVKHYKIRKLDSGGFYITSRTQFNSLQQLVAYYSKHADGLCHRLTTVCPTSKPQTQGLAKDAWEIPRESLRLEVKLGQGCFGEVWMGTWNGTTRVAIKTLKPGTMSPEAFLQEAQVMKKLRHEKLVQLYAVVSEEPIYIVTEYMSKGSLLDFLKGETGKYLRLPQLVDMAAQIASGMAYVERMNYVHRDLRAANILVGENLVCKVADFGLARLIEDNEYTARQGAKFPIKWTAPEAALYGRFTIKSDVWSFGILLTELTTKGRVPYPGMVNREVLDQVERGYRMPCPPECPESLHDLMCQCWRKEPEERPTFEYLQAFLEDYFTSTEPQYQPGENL

One may read the IC50 as the concentration that gives 50% inhibition. For the compound `CN1CCN(c2ccc(C(=O)Nc3n[nH]c4ncc(Cc5cc(F)cc(F)c5)cc34)c(NC3CCOCC3)c2)CC1` [Example 30-9, N-(5-(3,5-difluorobenzyl)-1H-pyrazolo[3,4-b]pyridin-3-yl)-4-(4-methylpiperazin-1-yl)-2-(tetrahydro-2H-pyran-4-ylamino)benzamide], the IC50 at Abl was found to be 38 nM; on ALK [1], 15 nM; at ALK [2], 1 nM; at c-Src, 9 nM. In addition, the adverse effects result in data set [3] is “no adverse effects”. Besides, the “inhibition of ALCL tumor growth” value in data set [3] was determined as 100%.

As for `CN1CCN(c2ccc(C(=O)Nc3n[nH]c4ncc(CCc5cc(F)cc(F)c5)cc34)c(NC3CCOCC3)c2)CC1` [Example 31, N-(5-(3,5-difluorophenethyl)-1H-pyrazolo[3,4-b]pyridin-3-yl)-4-(4-methylpiperazin-1-yl)-2-(tetrahydro-2H-pyran-4-ylamino)benzamide], the IC50 in data set [4] was 830 nM; at ALK [2] it was 17 nM.

Turning to `CN1CCN(c2ccc(C(=O)Nc3n[nH]c4ncc(Sc5cc(F)cc(F)c5)cc34)c(NC3CCOCC3)c2)CC1` [Example 30, N-(5-(3,5-difluorophenylthio)-1-H-pyrazolo[3,4-b]pyridine-3-yl)-4-(4-methylpiperazine-1-yl)-2-(tetrahydro-2H-pyran-4-ylamino)benzamide], the IC50 came to 18 nM on Abl; 7 nM on ALK [1]; 160 nM in data set [4]; 1 nM at ALK [2]; 4 nM at c-Src. Moreover, in data set [3], the adverse effects entry is reported as “no adverse effects”. Moreover, the “inhibition of ALCL tumor growth” value in data set [3] was 100%.

On to `COc1nc2[nH]nc(NC(=O)c3ccc(N4CCN(C)CC4)cc3NC3CCOCC3)c2cc1Sc1cc(F)cc(F)c1` [Example 30-5, N-(5-(3,5-difluorophenylthio)-6-methoxy-1H-pyrazolo[3,4-b]pyridin-3-yl)-4-(4-methylpiperazin-1-yl)-2-(tetrahydro-2H-pyran-4-ylamino)benzamide], for which the concentration for half-maximal inhibition (IC50) in data set [4] was determined as 2600 nM; on ALK [2], 66 nM.

`CN1CCN(c2ccc(C(=O)Nc3n[nH]c4ncc(Sc5ccccc5C(N)=O)cc34)c(NC3CCOCC3)c2)CC1` [Example 30-1, N-(5-(2-carbamoylphenylthio)-1H-pyrazolo[3,4-b]pyridin-3-yl)-4-(4-methylpiperazin-1-yl)-2-(tetrahydro-2H-pyran-4-ylamino)benzamide]: the IC50 in data set [4] turned out to be 2200 nM; on ALK [2], 20 nM.

Regarding `CN1CCN(c2ccc(CNc3n[nH]c4ncc(Sc5cc(F)cc(F)c5)cc34)cc2)CC1` [Example 28, 5-(3,5-difluorophenylthio)-N-(4-(4-methylpiperazin-1-yl)benzyl)-1H-pyrazolo[3,4-b]pyridin-3-amine], the IC50 on ALK [2] was determined as 36 nM.
